Source: patent US10844023B2 (Washington University, priority 2017, dated 2020)
Like-named read-outs stand apart in the source and are kept apart here.

What was measured:
[1] = test system: cultured neurons expressing MFN2 T105M; test: Cultured mouse neurons expressing CMT2A mutant MFN2; assay type: cell-based
Procedure: Neonatal mouse hippocampal neurons were cultured from brains of one day old Mfn2 T105M or non-transgenic sibling mouse pups as described. After 10 days of differentiating culture neurons were infected with Adeno-Cre to induce Mfn2 T105M expression or Adeno-βgal as a control (50 MOI). After an additional 72 hours mitofusin agonists or DMSO vehicle were added. For static confocal imaging neuronal mitochondria were labeled with adenoviral-expressed mitoGFP plus TMRE. Autophagy was measured by LC3 aggregation in neurons infected with adenoviral LC3-GFP. For time-lapse studies of mitochondrial trafficking bi-cistronic Adeno-Cre/GFP marked Cre expression and mitochondria were labeled with adeno-mitoDsRed. Confocal live cell images were acquired with a time-lapse of 1 frame every 90 seconds for 1 hour.

Mfn2 null MEFs = test: Mitochondrial elongation (aspect ratio) fusogenicity assay; assay type: cell-based, mouse; parameters: % long compare to B: dose or concentration left out as unconfirmed; settings: for Fusogenic activity: mitochondrial elongation / fusion; for EC50: Mus musculus, increase in mitochondrial aspect ratio
[2] = test system: MFN2 T105M sciatic nerves; test: Sciatic nerve axonal mitochondrial motility, agonist applied to the excised nerve; parameters: species or system mouse
Procedure: Sciatic nerves of 12-18 week old male or female MFN2 T105M mice were removed en bloc with the lumbar spine and axotomy at the tibial nerve, stained with TMEM ([…]) for 30 minutes in prewarmed Neurobasal Medium without phenol red (Thermo Fisher Scientific) at room temperature, washed, and maintained on the stage of a Nikon A1Rsi Confocal Microscope at 37 degrees C. for time-lapse confocal studies. Images were acquired with a 40×oil immersion objective at 1 frame every 5 or 10 seconds for sequential 10 minute periods. Mitofusin agonist chimera B-A/I was added after the first 10 minute imaging period (final concentrations of […]) and nerve axons imaged for another 40 minutes. Because there was no difference in mitochondrial trafficking or response to mitofusin agonist between male and female mice, the data were combined.

[3] = test system: ALS and HD patient-derived fibroblasts; test: Mitochondrial health assays in ALS and HD patient-derived fibroblasts; assay type: cell-based, human
Procedure: HD patient-derived fibroblast cell lines (GM04693 from patient and GM05539 from patient) were purchased from Invitrogen. ALS patient-derived fibroblasts (ALS 1: ND29509 from patient having SOD1 mutation; ALS 2: ND30327 having FUS1 mutation) and fibroblasts of control healthy individuals were purchased from Coriell Institute, USA. All fibroblast cultures were maintained in MEM supplemented with 15% (v/v) FBS and 1% (v/v) penicillin/streptomycin at 37° C. in 5% CO2-95% air. Galactose media was used, to increase mitochondria-dependent metabolism oxidative phosphorylation. Human fibroblasts were switched to grow for 48 h in DMEM deprived of glucose and containing galactose (4.5 g/I), 1% FBS, 5 mM sodium pyruvate and 2 mM L-glutamine for the studies.
Cells cultured in 8-well chamber slides were washed with cold PBS, fixed in 4% formaldehyde, and permeabilized with 0.1% Triton X-100. After incubation with 2% normal goat serum (to block nonspecific staining), fixed cells were incubated overnight at 4° C. with TOM20 antibody (1:500) (Santa Cruz, USA). Cells were washed with PBS and incubated for 60 minutes with FITC-conjugated goat anti-rabbit IgG (1:500 dilution). The cells were then washed gently with PBS and counterstained with Hoechst 33342 (1:10,000 dilution, Molecular Probes) to visualize nuclei. The coverslips were mounted with Slow-fade anti-fade reagent (Invitrogen), and images were acquired at 60×using an All-in-One Fluorescence Microscope BZ-X700 (Keyence).
Cells were incubated with tetra-methyl-rhodamine methyl ester (TMRM, 25 nM, Invitrogen) in HBSS (Hank's balanced salt solution) for 30 min at 37° C., per the manufacture's protocol, and the fluorescence was analyzed to measure mitochondrial membrane potential. All data were normalized with respect to the fluorescence intensity of control cells. To determine mitochondrial ROS production, cells were treated with 5 μM MitoSOX™ Red, a mitochondrial superoxide indicator (Invitrogen) for 20 min at 37° C., according to the manufacturer's protocol, and fluorescence was analyzed using SpectraMax M2e (Molecular devices).

MFN2 HR2 = molecular target: T1, MFN2 HR2 (Homo sapiens, UniProt O95140); test: HR1 peptide-HR2 target binding assay; settings: FITC minipeptide 374-384 at HR2 binding site
T1 construct: host or cells: synthetic peptide (note in the listing); immobilised on Ni-NTA resin
T1 sequence (O95140 with tags, fused parts or gaps limits assumed): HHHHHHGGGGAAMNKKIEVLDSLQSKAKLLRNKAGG
Description: The Mfn-derived fusion-promoting and -inhibiting mini-peptides (simulated to obtain the chemical Mfn agonists in TABLE 1 and TABLE 2) were modified from amino acid heptad repeats (HR) in the HR1 domain and predicted to interact with their counterparts in the carboxyl terminus HR2 domain within the Mfn stalk region (see e.g., FIG. 1, top panel). A high-throughput binding assay was designed whereby the target HR2 peptide sequences, modified to include amino terminal 6×His tags and Gly linkers, were bonded to Ni-chelate resin (20 μg/ml) and used as immobilized “receptor” for amino-FITC-tagged Mfn2 374-384 (agonist ligand) in which the Ser analogous to Ser378 was replaced with Asp to confer the negative charge essential for activity. For antagonist studies the ligand was amino-FITC-tagged Mfn2 406-418. The FITC peptide ligands are suspended at 1 mM in 30% DMSO, 70% water (to minimize spontaneous aggregation) and diluted into binding buffer (de-ionized water) to a final concentration of 25 μM in the presence or absence of competing compound. Dose-dependent loss of resin-bound FITC signal (485 nm excitation/538 nm emission) measured in a 96 well spectrofluorometer represents binding of compound to its HR2 target (see e.g., FIG. 10, FIG. 11). Either the ligand peptide or the receptor peptide can be modified to represent mutations, variations, or posttranslational modifications of Mfn2. […]
Target HR2 peptide sequence modified to include amino terminal 6×His tags and Gly linkers, were bonded to Ni-NTA resin (4.4 μg/ml) (Quiagen) and used as immobilized “receptor” for amino-FITC-tagged Mfn2 374-384 (ligand) in which the Ser analogous to Ser378 was replaced with Asp to confer the negative charge essential for activity. […] Resin-bound FITC signal (485 nm excitation/538 nm emission) measured in a 96 well spectrofluorometer (Spectramax M5e, Molecular Devices) represented binding to HR2 target. Competition binding isotherms were plotted and IC50 values calculated using Prism 7 (GraphPad).

MFN2 T105M = test: Reversal of mitochondrial dysmorphology provoked by MFN2 T105M in MEFs; assay type: cell-based, mouse
[4] = test system: MFN2 Asp^378 and Ala^378 mutants; test: Mitochondrial fusion with MFN2 Ser378 mutants (Asp378, Ala378); assay type: cell-based, human
[5] = Human liver microsome stability assay; assay type: in vitro ADME; settings: human liver microsomes (FIG. 49)
Procedure: FIG. 49 is a series of structures and a graph showing dose-response and human liver microsomal stability data for fusogenic compounds from FIG. 22. […] T1/2 values are from human liver microsome stability assay.
(§1) Plasma protein binding was measured using equilibrium dialysis; % bound=(1-[free compound in dialysate]/[total compound in retentate])×100. Plasma stability of […] compound in clarified freeze-thawed plasma was assessed by LC-MS/MS of supernatants after protein precipitation; 120 min data are reported for studies including 0, 10, 30, 60, and 120 min. Microsome stability of […] compound in liver microsomes (0.5 mg/ml) after 0, 5, 10, 20, 30, 60 min. incubation was assessed by LC/MS/MS of reaction extracts.

P-gp/MDR1 = P-gp/MDR1 (Homo sapiens, UniProt P08183); test: P-gp/MDR1 transport; assay type: in vitro ADME
Sequence of P-gp/MDR1 (P08183 whole entry): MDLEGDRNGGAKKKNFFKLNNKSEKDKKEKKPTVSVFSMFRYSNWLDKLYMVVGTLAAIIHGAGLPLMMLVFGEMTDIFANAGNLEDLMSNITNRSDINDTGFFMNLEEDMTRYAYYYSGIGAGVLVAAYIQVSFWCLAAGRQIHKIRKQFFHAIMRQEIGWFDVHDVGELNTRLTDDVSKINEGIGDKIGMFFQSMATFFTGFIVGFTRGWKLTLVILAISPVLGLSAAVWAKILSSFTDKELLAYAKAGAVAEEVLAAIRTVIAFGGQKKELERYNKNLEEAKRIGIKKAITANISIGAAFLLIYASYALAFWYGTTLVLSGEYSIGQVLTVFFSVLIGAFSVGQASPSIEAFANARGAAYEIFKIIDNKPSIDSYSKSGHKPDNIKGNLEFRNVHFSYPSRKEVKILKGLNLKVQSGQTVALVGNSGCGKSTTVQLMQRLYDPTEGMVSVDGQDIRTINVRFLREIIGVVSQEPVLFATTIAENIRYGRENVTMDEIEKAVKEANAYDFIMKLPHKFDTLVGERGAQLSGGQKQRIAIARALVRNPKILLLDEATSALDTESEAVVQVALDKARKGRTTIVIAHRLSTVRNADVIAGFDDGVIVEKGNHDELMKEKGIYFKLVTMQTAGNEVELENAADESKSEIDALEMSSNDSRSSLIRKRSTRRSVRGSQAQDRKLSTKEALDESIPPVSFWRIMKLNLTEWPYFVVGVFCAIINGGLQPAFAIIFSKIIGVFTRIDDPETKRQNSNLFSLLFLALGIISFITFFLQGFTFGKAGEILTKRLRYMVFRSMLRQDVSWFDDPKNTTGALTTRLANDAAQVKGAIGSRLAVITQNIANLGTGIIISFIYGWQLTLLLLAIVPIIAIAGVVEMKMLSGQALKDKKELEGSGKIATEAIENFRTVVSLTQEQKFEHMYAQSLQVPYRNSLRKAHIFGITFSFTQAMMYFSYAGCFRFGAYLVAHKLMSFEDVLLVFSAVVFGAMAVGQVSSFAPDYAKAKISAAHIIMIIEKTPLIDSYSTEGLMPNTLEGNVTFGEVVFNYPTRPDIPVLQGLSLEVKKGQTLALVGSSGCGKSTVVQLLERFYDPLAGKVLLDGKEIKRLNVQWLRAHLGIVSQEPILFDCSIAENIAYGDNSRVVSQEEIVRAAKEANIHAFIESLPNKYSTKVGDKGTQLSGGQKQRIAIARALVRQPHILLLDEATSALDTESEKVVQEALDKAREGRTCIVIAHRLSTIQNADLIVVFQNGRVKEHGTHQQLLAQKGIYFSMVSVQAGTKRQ

[6] = Plasma protein binding (equilibrium dialysis); assay type: in vitro ADME
Procedure: as §1

[7] = Plasma protein binding, mouse; assay type: in vitro ADME; settings: read-out: plasma protein bound in the mouse (converted)
Procedure: as §1

[8] = Parallel artificial membrane permeability assay (PAMPA); assay type: in vitro ADME
[9] = In vivo pharmacokinetics in mice; settings: mouse; for concentration at 2 h: plasma, intramuscular, 1 mg/kg
Procedure: (A) Three mice each were administered 1 mg/kg agonist IV, IP, or IM. Graphs are mean plasma concentration for each administration route. (B) Results for individual mice were administered 1 mg/kg indicated agonist IM.

[10] = Liver microsome stability; assay type: in vitro ADME
Procedure: as §1

Plasma stability = assay type: in vitro ADME
Procedure: as §1

[11] = Solubility in 50 mM phosphate buffer (pH 7.4); assay type: physicochemical
[12] = test system: Mfn1/Mfn2 double null MEFs; test: Mitochondrial elongation in Mfn1/Mfn2 double null MEFs; assay type: cell-based, mouse
Description: A cultured murine embryonic fibroblast assay system was used in which mitochondrial elongation (an increase in aspect ratio) reflects enhanced mitochondrial fusion.

[13] = ALS and HD patient-derived fibroblasts

Row | Compound | Fusogenic activity (Mfn2 null MEFs) | Mitochondrial motility in MFN2 T105M sciatic nerves [2] | Selectivity of fusogenic effect for phosphomimic Asp378 vs nonphosphorylatable Ala378 MFN2 [4] | EC50 (Mfn2 null MEFs) | P-gp mediated transport (P-gp/MDR1) | Plasma protein binding [6] | Passive diffusion across lipid-infused artificial membrane (PAMPA, words) [8] | Liver microsome stability [10] | other results
1 | CC1CCCCC1NC(=O)NCCSc1nnc(C2CC2)n1-c1ccccc1 (racemic) [B-A/I, 1-(2-((5-cyclopropyl-4-phenyl-4H-1,2,4-triazol-3-yl)thio)ethyl)-3-(2-methylcyclohexyl)urea] | potently stimulated mitochondrial fusion | restored mitochondrial motility to within normal levels | non-selective |  |  |  |  |  | Mitochondrial motility in cultured neurons expressing MFN2 T105M [1]: restored mitochondrial motility; Mitochondrial ROS levels [3, 13]: reduces mitochondrial ROS levels; Mitochondrial membrane potential [3, 13]: improves mitochondrial membrane potential; Mitochondrial structural defects [3, 13]: enhances mitochondrial structural defects; Effect on fibroblasts from control subjects ([3]; control fibroblasts): has no effect on fibroblasts from control subjects; Binding to / competition at HR2 target (MFN2 HR2): competed for minipeptide binding at the MFN2 HR2 interaction site; Reversal of mitochondrial dysmorphology provoked by MFN2 T105M (MFN2 T105M): as effective as the combination of Cpds A+B
2 | CCn1c(SCC(=O)Nc2sc3c(c2C(N)=O)CCC3)nnc1C1CC1 [1-G11, 2-{2-[(5-cyclopropyl-4-ethyl-4H-1,2,4-triazol-3-yl)sulfanyl]acetamido}-4H,5H,6H-cyclopenta[b]thiophene-3-carboxamide] | more potent |  |  |  |  |  |  |  | % long compare to B (Mfn2 null MEFs; mitochondrial elongation relative to Cpd B (B01 = 100), Mfn2 null MEFs, compound overnight as printed (FIG. 48)): 99%; Resistance to liver microsomal degradation vs Cpd B [5]: greater resistance to liver microsomal degradation
3 | CCn1c(CCCNC(=O)NC2CCOCC2)nnc1C1CC1 [Mitolityn-4, 1-(3-(5-cyclopropyl-4-ethyl-4H-1,2,4-triazol-3-yl)propyl)-3-(tetrahydro-2H-pyran-4-yl)urea] | highest potency |  |  | ~3 nM | no reverse transport by P-gp | low plasma protein binding | no passive diffusion across lipid membrane | stability in the liver microsome assay | fraction unbound [7]: 0.888; concentration at 2 h ([9]; 1 mg/kg IM, read-out: total plasma drug concentration 2 hours after IM administration): 7.5 ng/mL; concentration at 2 h ([9]; IM, from total concentration and protein binding, read-out: free drug concentration 2 hours after IM administration): ~6.66 ng/mL; concentration at 2 h ([9]; IM, read-out: free drug concentration 2 hours after IM administration): ~20 nM
4 | CC1CCCCC1NC(=O)NCCCc1nnc(C2CC2)n1-c1ccccc1 (centres unmarked) [Regeneurin-C, 1-(3-(5-cyclopropyl-4-phenyl-4H-1,2,4-triazol-3-yl)propyl)-3-(2-methylcyclohexyl)urea] |  |  |  |  | actively transported by P-gp/MDR1 |  | excellent passive diffusion |  | total plasma drug concentration 2 hours after IM administration ([9]; 1 mg/kg IM): undetectable
5 | CC1CCCCC1NC(=O)NCCSc1nnc(C2CC2)n1-c1ccccc1 (centres unmarked) [Regeneurin-S, 1-(2-((5-cyclopropyl-4-phenyl-4H-1,2,4-triazol-3-yl)thio)ethyl)-3-(2-methylcyclohexyl)urea] |  | rapidly correct mitochondrial dysmotility |  |  |  | highly protein bound |  | rapidly degraded by liver microsomes | Plasma stability (Plasma stability): stable in plasma; Solubility [11]: soluble
6 | CC1CCCCC1NC(=O)NCCSCc1ccccc1 (centres unmarked) [compound A, 1-[2-(benzylsulfanyl)ethyl]-3-(2-methylcyclohexyl)urea] | induced mitochondrial elongation |  | specific for the Asp^378 mutant of MFN2 | 100 to 200 nM |  |  |  |  | Mitochondrial elongation in absence of both mitofusins [12]: did not occur in the absence of both of their mitofusin targets
